Measured values from US8937088B2, “Ureas for the treatment and prevention of cancer” (Astar Biotech LLC, priority 2011, dated 2015).
Like-named read-outs stand apart in the source and are kept apart here.

How the values were obtained:
[1] = system: LNCaP (human prostate adenocarcinoma cell line); experiment: Cell death detection, trypan blue exclusion assay, LNCaP; type: cell-based; conditions: read-out: Cell Death (%) at Tested Concentration
Protocol: (§1) Biological Test 2. Cell Death Detection Using Trypan Blue Exclusion Assay.
(§2) After drug treatment, cells were harvested by trypsinization with trypsin/EDTA for 10 min at 37° C. As some apoptotic cells detached from the culture substratum into the medium, these cells were also collected by centrifugation of the medium at 1,200 rpm for 5 min. The pooled cell pellets were resuspended and mixed with trypan blue dye. After Trypan blue stain was done, cells were counted by using a light microscope and a hemocytometer. Blue dye-incorporating cells were scored as being dead. Five hundred cells from randomly chosen fields were counted, and the number of dead cells was counted and expressed as a percentage of the total number of cells counted as shown in Tables 2 to 8 below.

BRAF = BRAF (Homo sapiens, UniProt P15056); experiment: In vitro kinase assay (Invitrogen SelectScreen Profiling Service), BRAF; type: biochemical
Protocol: (§3) Biological Test 1. In Vitro Kinase Assay for BRAF, FLT3 and KDR(VEGFR2) The inhibitory activities of the compounds of the invention were measured by Invitrogen's SelectScreen® Profiling Service.

[2] = system: HepG2 (human Hepatocellular carcinoma cell line); experiment: Cell death detection, trypan blue exclusion assay, HepG2; type: cell-based; conditions: HepG2, 5-day treatment
Protocol: as §1, §2

[3] = system: patient-derived primary squamous lung 14531 tumor; experiment: In vivo activity in SCID mouse model with lung cancer, 30-day treatment; conditions: patient-derived primary squamous lung 14531 tumor in mouse, compared to the control
Text: Biological Test 4. In Vivo Activity in […] SCID Mouse Model with Lung Cancer
Biological Test 5. In Vivo Activity in Senograph SCID Mouse Model with Lung Cancer

[4] = system: HUH7 (human hepatoma cell line); experiment: Cell death detection, trypan blue exclusion assay, HUH7; type: cell-based; conditions: Huh-7, 168 h, HUH7, 7-day treatment, read-out: Cell Death (%) at Tested Concentration
Protocol: as §1, §2

FLT3 = target: T1, FLT3 (Homo sapiens, UniProt P36888); experiment: In vitro kinase assay (Invitrogen SelectScreen Profiling Service), FLT3; type: biochemical; conditions: FLT3, 0.1 μM
T1 sequence (P36888 27-993): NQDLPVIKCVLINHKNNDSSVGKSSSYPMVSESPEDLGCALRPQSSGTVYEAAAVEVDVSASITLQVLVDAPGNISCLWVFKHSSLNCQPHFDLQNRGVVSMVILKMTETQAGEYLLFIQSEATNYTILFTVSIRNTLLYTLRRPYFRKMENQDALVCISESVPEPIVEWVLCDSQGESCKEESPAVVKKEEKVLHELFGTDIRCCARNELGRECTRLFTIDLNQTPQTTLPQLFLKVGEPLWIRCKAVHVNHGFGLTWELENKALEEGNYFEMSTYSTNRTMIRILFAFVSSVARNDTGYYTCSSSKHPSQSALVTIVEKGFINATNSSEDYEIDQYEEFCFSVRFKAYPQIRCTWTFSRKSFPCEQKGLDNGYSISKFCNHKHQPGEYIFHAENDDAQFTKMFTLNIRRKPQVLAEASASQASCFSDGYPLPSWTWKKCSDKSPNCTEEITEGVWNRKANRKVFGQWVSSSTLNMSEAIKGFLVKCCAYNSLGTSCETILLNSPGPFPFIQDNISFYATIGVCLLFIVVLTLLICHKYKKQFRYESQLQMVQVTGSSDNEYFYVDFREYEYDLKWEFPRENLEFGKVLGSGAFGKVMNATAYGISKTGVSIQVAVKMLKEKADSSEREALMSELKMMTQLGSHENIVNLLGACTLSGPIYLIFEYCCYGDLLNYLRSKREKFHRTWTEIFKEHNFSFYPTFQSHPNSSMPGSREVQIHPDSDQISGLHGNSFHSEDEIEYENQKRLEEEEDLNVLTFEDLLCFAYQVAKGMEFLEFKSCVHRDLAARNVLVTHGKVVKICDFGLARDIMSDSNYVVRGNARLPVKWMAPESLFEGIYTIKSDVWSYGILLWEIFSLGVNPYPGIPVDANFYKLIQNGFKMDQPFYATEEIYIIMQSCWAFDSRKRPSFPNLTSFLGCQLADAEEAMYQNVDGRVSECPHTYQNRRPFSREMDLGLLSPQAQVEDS
Protocol: as §3

[5] = system: Hep3B (human hepatoma cell line); experiment: Cell death detection, trypan blue exclusion assay, Hep3B; type: cell-based; conditions: 5-day treatment
Protocol: as §1, §2

[6] = system: HT29 (human colon adenocarcinoma cell line); experiment: Cell death detection, trypan blue exclusion assay, HT29; type: cell-based; conditions: HT29, 5-day treatment
Protocol: as §1, §2

[7] = system: HUH7 (human hepatoma cell line); experiment: Cell death detection, trypan blue exclusion assay, HUH7, in combination with AZD-6244; type: cell-based; conditions: HUH7, 6-day treatment, compound 0.5 μM
Protocol: as §1, §2

KDR(VEGFR2) = KDR(VEGFR2) (Homo sapiens, UniProt P35968); experiment: In vitro kinase assay (Invitrogen SelectScreen Profiling Service), KDR; type: biochemical
Protocol: as §3

Sequence of KDR(VEGFR2) (P35968 20-1356): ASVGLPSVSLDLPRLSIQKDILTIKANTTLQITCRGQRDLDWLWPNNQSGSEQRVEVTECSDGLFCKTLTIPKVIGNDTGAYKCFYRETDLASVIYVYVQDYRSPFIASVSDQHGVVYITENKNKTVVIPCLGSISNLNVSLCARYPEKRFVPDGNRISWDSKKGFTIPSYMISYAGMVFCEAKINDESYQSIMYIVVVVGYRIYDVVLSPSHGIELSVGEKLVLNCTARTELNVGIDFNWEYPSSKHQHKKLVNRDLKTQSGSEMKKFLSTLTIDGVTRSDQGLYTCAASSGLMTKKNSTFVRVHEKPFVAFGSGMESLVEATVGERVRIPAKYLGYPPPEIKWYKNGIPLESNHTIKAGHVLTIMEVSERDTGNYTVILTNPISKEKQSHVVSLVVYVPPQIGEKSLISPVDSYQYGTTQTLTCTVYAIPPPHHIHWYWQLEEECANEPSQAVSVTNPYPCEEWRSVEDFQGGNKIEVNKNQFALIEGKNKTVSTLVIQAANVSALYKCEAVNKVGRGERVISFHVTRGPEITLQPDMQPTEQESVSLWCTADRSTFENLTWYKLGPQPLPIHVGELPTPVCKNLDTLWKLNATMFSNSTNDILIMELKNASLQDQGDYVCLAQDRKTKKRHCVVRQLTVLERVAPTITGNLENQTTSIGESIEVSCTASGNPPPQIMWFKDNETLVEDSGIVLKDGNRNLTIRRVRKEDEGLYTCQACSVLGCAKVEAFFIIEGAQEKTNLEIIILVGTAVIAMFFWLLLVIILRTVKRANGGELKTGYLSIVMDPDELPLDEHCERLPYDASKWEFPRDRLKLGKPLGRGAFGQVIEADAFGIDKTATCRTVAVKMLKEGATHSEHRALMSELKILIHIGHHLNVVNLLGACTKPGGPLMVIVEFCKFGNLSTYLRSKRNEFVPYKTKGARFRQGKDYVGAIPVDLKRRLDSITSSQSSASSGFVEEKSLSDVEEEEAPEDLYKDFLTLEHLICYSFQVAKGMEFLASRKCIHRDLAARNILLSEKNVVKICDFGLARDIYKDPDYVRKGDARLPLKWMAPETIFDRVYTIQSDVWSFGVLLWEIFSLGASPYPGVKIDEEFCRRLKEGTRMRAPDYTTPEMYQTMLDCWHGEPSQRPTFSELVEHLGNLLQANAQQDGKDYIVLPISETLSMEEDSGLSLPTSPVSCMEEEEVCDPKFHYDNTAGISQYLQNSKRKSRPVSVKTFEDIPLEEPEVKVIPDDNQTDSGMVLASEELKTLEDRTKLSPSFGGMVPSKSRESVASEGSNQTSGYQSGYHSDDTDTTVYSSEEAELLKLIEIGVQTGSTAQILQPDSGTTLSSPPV
Sequence of BRAF (P15056 whole entry): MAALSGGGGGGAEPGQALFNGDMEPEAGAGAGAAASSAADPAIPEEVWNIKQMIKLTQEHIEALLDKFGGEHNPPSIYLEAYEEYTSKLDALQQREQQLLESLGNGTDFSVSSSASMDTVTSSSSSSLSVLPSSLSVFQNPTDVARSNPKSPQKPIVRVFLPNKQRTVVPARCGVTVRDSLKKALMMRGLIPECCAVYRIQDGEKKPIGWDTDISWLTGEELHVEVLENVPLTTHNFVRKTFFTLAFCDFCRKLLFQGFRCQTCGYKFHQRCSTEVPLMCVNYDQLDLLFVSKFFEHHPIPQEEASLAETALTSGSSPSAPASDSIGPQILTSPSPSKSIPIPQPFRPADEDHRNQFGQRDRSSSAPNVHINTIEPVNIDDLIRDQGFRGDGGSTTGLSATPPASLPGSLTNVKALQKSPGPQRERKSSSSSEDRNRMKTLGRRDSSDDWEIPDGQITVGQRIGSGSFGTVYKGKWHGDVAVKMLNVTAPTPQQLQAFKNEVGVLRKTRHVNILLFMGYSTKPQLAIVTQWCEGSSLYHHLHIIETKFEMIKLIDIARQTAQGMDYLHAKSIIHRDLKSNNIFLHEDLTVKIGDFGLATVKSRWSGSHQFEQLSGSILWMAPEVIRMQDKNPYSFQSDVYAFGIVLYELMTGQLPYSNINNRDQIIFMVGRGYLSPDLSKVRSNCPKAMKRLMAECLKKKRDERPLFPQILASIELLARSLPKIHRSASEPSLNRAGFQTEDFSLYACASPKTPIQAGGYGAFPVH

Compound `CNC(=O)c1cc(Oc2ccc(NC(=O)Nc3ccc(Cl)c(S(F)(F)(F)(F)F)c3)c(F)c2)ccn1` [Example 4, 4-[4-({[4-chloro-3-(pentafluoro-λ^6-sulfanyl)phenyl]carbamoyl}amino)-3-fluorophenoxy]-N-methylpyridine-2-carboxamide] has a cytotoxicity at 1 µM ([1]; 72 h, 3-day treatment) of 1.8%, a cytotoxicity at 2.5 µM ([1]; 72 h, 3-day treatment) of 1.4% and a cytotoxicity at 5 µM ([1]; 72 h, 3-day treatment) of 2.8%. For the same compound, the cytotoxicity at 7.5 µM ([1]; 72 h, 3-day treatment) was 46.8%, the cytotoxicity at 10 µM ([1]; 72 h, 3-day treatment) was 94.8% and the cytotoxicity at 1 µM ([1]; 168 h, 7-day treatment) was 1.4%. For the same compound, the cytotoxicity at 2.5 µM ([1]; 168 h, 7-day treatment) was 2.7%, the cytotoxicity at 5 µM ([1]; 168 h, 7-day treatment) was 69.4% and the cytotoxicity at 7.5 µM ([1]; 168 h, 7-day treatment) was 99%. For the same compound, the cytotoxicity at 10 µM ([1]; 168 h, 7-day treatment) was 99%, the inhibition at 0.1 µM (BRAF) was 8% and the “Cell Death (%) at Tested Concentration” value ([2]; 0.25 uM) was 1.9%. The “Cell Death (%) at Tested Concentration” value ([2]; 3.0 uM) was 4.5%, the “Cell Death (%) at Tested Concentration” value ([2]; 5.0 uM) was 27.6% and the “effect in reducing the tumor volume” value [3] was “significant effect in reducing the tumor volume”. It also gave a cytotoxicity at 1 µM ([4]; 1.0 uM) of 2.8%, a cytotoxicity at 2.5 µM ([4]; 2.5 uM) of 3.1% and a cytotoxicity at 5 µM ([4]; 5.0 uM) of 59.8%. The cytotoxicity at 7.5 µM ([4]; 7.5 uM) was 91.4%, the cytotoxicity at 10 µM ([4]; 10 uM) was 93.4% and the inhibition at 0.1 µM (FLT3) was 51%. The “Cell Death (%) at Tested Concentration” value ([5]; 0.25 uM) was 4.6%, the “Cell Death (%) at Tested Concentration” value ([5]; 3.0 uM) was 67.2% and the “Cell Death (%) at Tested Concentration” value ([5]; 5.0 uM) was 96.7%. The “Cell Death (%) at Tested Concentration” value ([6]; 2.5 uM) was 11.6%, the “Cell Death (%) at Tested Concentration” value ([6]; 5.0 uM) was 13.8% and the “Cell Death (%) at Tested Concentration” value ([6]; 10 uM) was 44.6%. For the same compound, the “Cell Death (%) in combination with AZD-6244” value ([7]; AZD-6244 0 μM) was 2.6%, the “Cell Death (%) in combination with AZD-6244” value ([7]; AZD-6244 0.5 μM) was 99% and the inhibition at 0.1 µM (KDR(VEGFR2)) was 36%.
